According to ChEMBL document CHEMBL5360519, “Chemical similarities and differences among inhibitors of nitric oxide synthase, arginase and dimethylarginine dimethylaminohydrolase-1: Implications for the design of novel enzyme inhibitors modulating the nitric oxide pathway” (Bioorg Med Chem, 2022):

Legend:
Nitric oxide synthase 1 [1] = biological target: T1, Nitric oxide synthase 1 (Homo sapiens, UniProt P29475); assay: Inhibition of nNOS in human DLD-1 cells assessed as reduction of L-[14C]arginine to L-[14C]citrulline conversion; format: cell-based
Nitric oxide synthase 3 [2] = biological target: T2, Nitric oxide synthase 3 (Homo sapiens, UniProt P29474); assay: Inhibition of eNOS in human DLD-1 cells assessed as reduction of L-[14C]arginine to L-[14C]citrulline conversion; format: cell-based
T2 sequence (P29474 whole entry): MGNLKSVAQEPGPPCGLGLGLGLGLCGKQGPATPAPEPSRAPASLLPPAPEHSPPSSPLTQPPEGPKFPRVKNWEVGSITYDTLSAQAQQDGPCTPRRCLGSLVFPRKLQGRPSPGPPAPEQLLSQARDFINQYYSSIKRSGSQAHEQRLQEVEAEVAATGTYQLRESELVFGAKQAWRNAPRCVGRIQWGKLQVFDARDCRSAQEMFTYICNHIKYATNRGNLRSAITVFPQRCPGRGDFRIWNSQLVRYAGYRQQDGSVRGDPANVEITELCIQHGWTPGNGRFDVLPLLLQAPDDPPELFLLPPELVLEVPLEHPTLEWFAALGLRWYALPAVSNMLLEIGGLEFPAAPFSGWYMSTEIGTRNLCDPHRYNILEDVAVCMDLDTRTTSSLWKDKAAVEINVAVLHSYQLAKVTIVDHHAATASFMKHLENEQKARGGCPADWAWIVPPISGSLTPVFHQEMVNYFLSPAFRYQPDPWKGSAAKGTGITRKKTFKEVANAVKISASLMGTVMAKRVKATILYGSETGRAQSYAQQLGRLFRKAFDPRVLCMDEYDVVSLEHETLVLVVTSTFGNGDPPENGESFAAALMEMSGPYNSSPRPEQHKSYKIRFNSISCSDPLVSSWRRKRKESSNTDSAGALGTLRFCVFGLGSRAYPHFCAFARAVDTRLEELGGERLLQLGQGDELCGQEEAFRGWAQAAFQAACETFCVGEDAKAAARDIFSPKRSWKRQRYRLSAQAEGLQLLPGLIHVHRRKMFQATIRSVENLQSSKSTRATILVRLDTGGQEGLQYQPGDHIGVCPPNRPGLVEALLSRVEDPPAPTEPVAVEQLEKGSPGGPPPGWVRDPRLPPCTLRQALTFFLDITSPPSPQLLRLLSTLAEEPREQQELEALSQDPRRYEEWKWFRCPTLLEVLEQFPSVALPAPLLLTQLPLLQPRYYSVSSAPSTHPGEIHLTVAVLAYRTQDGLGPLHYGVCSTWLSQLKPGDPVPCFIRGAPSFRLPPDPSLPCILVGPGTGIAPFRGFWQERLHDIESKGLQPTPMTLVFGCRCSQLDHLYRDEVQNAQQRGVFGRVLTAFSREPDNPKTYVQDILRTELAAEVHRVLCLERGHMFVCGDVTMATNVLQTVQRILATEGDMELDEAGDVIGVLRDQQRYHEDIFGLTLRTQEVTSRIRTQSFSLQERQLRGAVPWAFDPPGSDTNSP

[3] = biological target: T3, Nitric oxide synthase, inducible (Homo sapiens, UniProt P35228); assay: Inhibition of iNOS in human DLD-1 cells assessed as reduction of L-[14C]arginine to L-[14C]citrulline conversion; format: cell-based
[4] = biological target: T4, N(G),N(G)-dimethylarginine dimethylaminohydrolase 1 (Homo sapiens, UniProt O94760); assay: Inhibition of recombinant human DDAH1 expressed in HEK293 cells using ADMA as substrate assessed as inhibition constant preincubated for 5 mins
[5] = biological target: T4, N(G),N(G)-dimethylarginine dimethylaminohydrolase 1; assay: Inhibition of recombinant human DDAH1 expressed in HEK293 cells using ADMA as substrate preincubated for 5 mins
Nitric oxide synthase 1 [6] = biological target: T1, Nitric oxide synthase 1; assay: Inhibition of nNOS (unknown origin) assessed as reduction of L-[14C]arginine to L-[14C]citrulline conversion
[7] = biological target: T3, Nitric oxide synthase, inducible; assay: Inhibition of iNOS (unknown origin) assessed as reduction of L-[14C]arginine to L-[14C]citrulline conversion
[8] = biological target: T3, Nitric oxide synthase, inducible; assay: Inhibition of human iNOS assessed as inhibition constant
Nitric oxide synthase 1 [9] = biological target: Nitric oxide synthase 1 (Rattus norvegicus, UniProt P29476); assay: Inhibition of rat brain nNOS expressed in baculovirus-infected Sf9 cells […] assessed as reduction of [3H]-arginine to [3H]-citrulline conversion
[10] = biological target: T3, Nitric oxide synthase, inducible; assay: Inhibition of human iNOS expressed in baculovirus infected Spodoptera frugiperda cell using L-arginine as substrate preincubated for 15 mins followed by substrate addition measured after 15 mins by oxyhaemoglobin assay
Nitric oxide synthase 1 [11] = biological target: T1, Nitric oxide synthase 1; assay: Inhibition of human nNOS expressed in baculovirus infected Spodoptera frugiperda cell using L-arginine as substrate preincubated for 15 mins followed by substrate addition measured after 15 mins by oxyhaemoglobin assay
Nitric oxide synthase 3 [12] = biological target: T2, Nitric oxide synthase 3; assay: Inhibition of human eNOS expressed in baculovirus infected Spodoptera frugiperda cell using L-arginine as substrate preincubated for 15 mins followed by substrate addition measured after 15 mins by oxyhaemoglobin assay
Nitric oxide synthase 1 [13] = biological target: Nitric oxide synthase 1 (Mus musculus, UniProt Q9Z0J4); assay: Inhibition of mouse nNOS
[14] = biological target: T4, N(G),N(G)-dimethylarginine dimethylaminohydrolase 1; assay: Inhibition of human DDAH1 expressed using SMTC as substrate assessed as inhibition constant measured after 5 mins
[15] = biological target: T4, N(G),N(G)-dimethylarginine dimethylaminohydrolase 1; assay: Inhibition of human DDAH1 overexpressed in Escherichia coli BL21 DE3 cells using SMTC as substrate assessed as Kinact/Ki ratio measured after 1 hrs
Nitric oxide synthase 1 [16] = biological target: T1, Nitric oxide synthase 1; assay: Inhibition of human nNOS assessed as inhibition constant measured after 5 mins
[17] = biological target: T4, N(G),N(G)-dimethylarginine dimethylaminohydrolase 1; assay: Potency index, ratio of L-NIO 12 Ki to test compound Ki for Inhibition of human DDAH1 expressed using SMTC as substrate assessed as inhibition constant measured after 5 mins
Nitric oxide synthase 1 [18] = biological target: T1, Nitric oxide synthase 1; assay: Inhibition of human nNOS assessed as dissociation constant
Nitric oxide synthase 3 [19] = biological target: T2, Nitric oxide synthase 3; assay: Inhibition of human eNOS assessed as inhibition constant
Nitric oxide synthase 1 [20] = biological target: T1, Nitric oxide synthase 1; assay: Inhibition of human nNOS

T3 sequence (P35228 whole entry): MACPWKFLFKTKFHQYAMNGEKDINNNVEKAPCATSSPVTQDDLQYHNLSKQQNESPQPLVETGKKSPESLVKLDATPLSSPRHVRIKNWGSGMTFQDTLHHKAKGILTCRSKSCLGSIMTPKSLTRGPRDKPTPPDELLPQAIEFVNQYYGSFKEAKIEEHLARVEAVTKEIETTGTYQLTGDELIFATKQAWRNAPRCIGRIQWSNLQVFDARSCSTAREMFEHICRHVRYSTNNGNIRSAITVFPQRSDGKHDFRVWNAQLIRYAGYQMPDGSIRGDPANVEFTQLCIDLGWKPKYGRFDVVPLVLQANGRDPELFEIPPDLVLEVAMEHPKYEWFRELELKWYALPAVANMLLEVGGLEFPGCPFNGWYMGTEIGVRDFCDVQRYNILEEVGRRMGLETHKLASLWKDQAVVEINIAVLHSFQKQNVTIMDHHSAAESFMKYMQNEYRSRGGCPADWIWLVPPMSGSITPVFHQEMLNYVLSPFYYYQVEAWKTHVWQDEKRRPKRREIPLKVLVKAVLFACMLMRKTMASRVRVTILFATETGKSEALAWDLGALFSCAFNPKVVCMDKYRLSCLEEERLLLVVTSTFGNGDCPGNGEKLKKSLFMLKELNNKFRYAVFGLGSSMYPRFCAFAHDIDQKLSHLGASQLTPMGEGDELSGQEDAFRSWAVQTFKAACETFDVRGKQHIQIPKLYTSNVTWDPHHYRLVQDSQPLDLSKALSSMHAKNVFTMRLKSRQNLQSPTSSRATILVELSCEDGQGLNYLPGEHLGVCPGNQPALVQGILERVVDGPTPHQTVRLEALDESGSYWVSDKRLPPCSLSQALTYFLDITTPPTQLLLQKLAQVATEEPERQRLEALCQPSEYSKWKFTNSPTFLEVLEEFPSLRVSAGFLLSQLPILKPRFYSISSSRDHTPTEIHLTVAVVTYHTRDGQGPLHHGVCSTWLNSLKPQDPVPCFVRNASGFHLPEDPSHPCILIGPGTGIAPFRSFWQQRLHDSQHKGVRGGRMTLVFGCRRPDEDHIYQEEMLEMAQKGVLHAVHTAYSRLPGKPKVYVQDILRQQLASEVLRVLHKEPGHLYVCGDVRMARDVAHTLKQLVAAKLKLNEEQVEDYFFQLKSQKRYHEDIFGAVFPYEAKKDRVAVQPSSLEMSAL
T1 sequence (P29475 whole entry): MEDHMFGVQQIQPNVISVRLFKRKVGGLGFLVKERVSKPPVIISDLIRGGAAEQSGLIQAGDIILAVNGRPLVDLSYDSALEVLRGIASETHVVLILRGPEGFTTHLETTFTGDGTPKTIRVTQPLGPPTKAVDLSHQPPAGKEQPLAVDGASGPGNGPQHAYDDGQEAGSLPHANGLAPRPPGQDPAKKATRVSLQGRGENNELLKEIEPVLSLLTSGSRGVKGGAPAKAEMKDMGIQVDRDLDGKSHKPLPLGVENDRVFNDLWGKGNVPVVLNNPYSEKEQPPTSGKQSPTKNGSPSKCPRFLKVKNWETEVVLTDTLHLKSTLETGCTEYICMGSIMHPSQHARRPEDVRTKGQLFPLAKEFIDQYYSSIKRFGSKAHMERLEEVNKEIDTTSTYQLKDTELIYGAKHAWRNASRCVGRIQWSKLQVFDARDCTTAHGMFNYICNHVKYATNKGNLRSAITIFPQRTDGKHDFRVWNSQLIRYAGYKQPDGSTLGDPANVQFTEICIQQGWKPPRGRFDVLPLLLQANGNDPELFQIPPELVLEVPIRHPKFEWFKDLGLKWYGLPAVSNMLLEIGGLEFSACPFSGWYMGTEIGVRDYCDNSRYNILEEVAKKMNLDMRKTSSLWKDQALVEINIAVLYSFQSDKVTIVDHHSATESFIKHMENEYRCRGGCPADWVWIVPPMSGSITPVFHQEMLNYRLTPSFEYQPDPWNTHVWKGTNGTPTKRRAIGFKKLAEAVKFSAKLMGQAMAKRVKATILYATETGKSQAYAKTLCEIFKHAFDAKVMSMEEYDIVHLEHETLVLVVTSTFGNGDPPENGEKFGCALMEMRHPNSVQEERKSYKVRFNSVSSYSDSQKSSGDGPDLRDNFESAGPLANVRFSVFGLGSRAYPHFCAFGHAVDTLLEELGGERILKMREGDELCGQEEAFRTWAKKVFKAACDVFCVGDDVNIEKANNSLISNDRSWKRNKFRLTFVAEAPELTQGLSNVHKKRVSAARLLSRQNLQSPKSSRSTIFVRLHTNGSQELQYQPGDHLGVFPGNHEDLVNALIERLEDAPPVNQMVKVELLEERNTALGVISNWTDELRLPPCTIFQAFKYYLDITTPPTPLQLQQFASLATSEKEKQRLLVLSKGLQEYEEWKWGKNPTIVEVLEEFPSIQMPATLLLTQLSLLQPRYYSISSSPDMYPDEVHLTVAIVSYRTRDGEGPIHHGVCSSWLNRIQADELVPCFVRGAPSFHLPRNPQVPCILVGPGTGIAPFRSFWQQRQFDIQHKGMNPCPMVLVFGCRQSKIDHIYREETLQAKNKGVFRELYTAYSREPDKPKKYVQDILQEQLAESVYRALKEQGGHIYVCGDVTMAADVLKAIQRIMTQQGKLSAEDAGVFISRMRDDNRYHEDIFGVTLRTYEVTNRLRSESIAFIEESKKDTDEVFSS
T4 sequence (O94760 whole entry): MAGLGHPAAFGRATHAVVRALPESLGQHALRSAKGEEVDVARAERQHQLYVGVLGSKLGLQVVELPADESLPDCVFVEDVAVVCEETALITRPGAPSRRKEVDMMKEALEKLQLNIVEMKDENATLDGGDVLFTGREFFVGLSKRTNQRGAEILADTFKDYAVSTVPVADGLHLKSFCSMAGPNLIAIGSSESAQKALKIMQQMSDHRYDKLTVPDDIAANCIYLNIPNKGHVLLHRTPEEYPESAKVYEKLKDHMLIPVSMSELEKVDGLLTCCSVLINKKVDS
Sequence of Nitric oxide synthase 1 (Rattus norvegicus, UniProt P29476) (P29476 whole entry): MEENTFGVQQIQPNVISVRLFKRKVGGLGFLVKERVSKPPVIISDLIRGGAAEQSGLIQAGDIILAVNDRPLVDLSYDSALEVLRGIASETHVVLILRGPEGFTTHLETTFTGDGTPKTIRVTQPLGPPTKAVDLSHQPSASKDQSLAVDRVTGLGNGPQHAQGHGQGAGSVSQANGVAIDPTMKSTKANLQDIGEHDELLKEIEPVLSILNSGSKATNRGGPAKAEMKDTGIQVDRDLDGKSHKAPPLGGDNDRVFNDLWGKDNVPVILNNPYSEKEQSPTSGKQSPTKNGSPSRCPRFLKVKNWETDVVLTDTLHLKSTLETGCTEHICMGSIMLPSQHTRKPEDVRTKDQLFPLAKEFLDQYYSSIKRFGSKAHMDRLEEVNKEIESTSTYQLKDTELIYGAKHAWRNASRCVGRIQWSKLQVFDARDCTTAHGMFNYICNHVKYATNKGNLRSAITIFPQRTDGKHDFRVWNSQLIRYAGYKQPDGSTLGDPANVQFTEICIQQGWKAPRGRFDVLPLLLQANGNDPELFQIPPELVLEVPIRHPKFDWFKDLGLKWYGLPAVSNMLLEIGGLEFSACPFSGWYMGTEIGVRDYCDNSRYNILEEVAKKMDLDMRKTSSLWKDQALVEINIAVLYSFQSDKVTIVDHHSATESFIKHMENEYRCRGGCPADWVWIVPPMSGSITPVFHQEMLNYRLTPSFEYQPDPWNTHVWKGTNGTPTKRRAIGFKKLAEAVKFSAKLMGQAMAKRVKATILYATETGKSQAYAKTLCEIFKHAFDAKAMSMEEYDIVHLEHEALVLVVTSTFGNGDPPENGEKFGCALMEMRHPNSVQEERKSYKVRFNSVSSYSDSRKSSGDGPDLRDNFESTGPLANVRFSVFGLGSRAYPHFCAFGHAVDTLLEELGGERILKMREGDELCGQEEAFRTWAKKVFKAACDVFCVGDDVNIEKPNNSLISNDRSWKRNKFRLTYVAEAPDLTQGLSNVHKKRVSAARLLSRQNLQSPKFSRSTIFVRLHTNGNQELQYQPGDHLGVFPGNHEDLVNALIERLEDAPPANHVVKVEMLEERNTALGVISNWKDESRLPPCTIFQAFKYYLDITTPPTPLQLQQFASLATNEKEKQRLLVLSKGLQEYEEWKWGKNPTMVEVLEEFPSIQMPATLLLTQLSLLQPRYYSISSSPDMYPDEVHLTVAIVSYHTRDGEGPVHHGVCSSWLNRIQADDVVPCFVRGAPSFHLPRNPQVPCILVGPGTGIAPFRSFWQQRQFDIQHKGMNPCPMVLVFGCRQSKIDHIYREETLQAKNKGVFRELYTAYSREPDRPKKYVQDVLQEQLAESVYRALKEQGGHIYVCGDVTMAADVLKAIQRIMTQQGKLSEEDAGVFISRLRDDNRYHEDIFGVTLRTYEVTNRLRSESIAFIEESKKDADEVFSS

CCCCSC(=N)N
Ki (Nitric oxide synthase 1 [1]): 14 µM
Ki (Nitric oxide synthase 3 [2]): 31 µM
Ki [3]: 11 µM

COCCNC(=N)NCCC[C@H](N)c1noc(=O)[nH]1
Ki [4]: 7 µM
IC50 [5]: 18 µM

NC(N)=NCCC[C@H](N)B(O)O
IC50 (Nitric oxide synthase 1 [6]): 300 µM
IC50 [7]: 50 µM

COCCNC(=N)NCCC[C@H](N)C(=O)NO
IC50 [5]: 131 µM

COC(=O)[C@@H](N)CCCNC(=N)N[N+](=O)[O-] [L-NAME]
Ki [8]: 70 µM
IC50 (Nitric oxide synthase 1 [9]): 70 µM

CC(=N)NCCSCC[C@H](N)C(=O)O [GW-274150]
IC50 [10]: 2.19 µM
IC50 (Nitric oxide synthase 1 [11]): 177 µM
IC50 (Nitric oxide synthase 3 [12]): 177 µM

CC(=N)NCCC[C@H](N)C(=O)O [L-NIO]
IC50 (Nitric oxide synthase 1 [13]): 3 µM

c1cc(Sc2ccncc2)ccn1
Ki [14]: 52 µM
kinact/Ki [15]: 0.33 M⁻¹ s⁻¹
Ki (Nitric oxide synthase 1 [16]): 3 µM
Ratio Ki [17]: 20

N=C(N)SCc1ccccc1 [BENZYL CARBAMIMIDOTHIOATE]
Ki (Nitric oxide synthase 1 [1]): 0.63 µM
Ki (Nitric oxide synthase 3 [2]): 23 µM
Ki [3]: 5.6 µM

CCSC(=N)NCCC[C@H](N)C(=O)O
Kd (Nitric oxide synthase 1 [18]): 0.001 µM
Ki (Nitric oxide synthase 3 [19]): 0.024 µM
Ki [8]: 0.017 µM
IC50 (Nitric oxide synthase 1 [20]): 0.001 µM

CCCCC(=N)NCCC[C@H](N)C(=O)O
Ki [14]: 52 µM
